# Laboratory results published in US10738028B2, “Spiro three-membered ring, spiro five-membered ring peptide deformylase inhibitor and use thereof in antibacteria and anti-tumor” (priority 2016, dated 2020).
# Key:
# [1] = tested on: the test strains; test: MIC against the test strains (strain not given); assay type: cell-based; conditions: read-out: MIC (azole amide bioisosteres)
# Source text: 1. The invention adopts the two-fold agar dilution method recommended by the operating procedure of antimicrobial susceptibility testing set by American Clinical and Laboratory Standards Institute (CLSI) to determine the Minimum Inhibitory Concentration (MIC) of the test samples against the tested strains.
# [2] = tested on: Enterococcus faecalis (EFA); test: MIC, two-fold agar dilution (CLSI), clinical isolates; assay type: cell-based
# How it was run: (§1)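 Susceptibility was tested using CLSI two-fold agar dilution against the strains examined.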
# [3] = tested on: Escherichia coli (including ESBLs, non-ESBLs); test: as above; assay type: cell-based
# How it was run: as §1
# [4] = tested on: methicillin-sensitive Staphylococcus aureus (MSSA); test: as above; assay type: cell-based
# How it was run: as §1
# [5] = tested on: methicillin-resistant Staphylococcus aureus (MRSA); test: as above; assay type: cell-based
# How it was run: as §1
# [6] = tested on: methicillin-resistant Staphylococcus epidermidis (MRSE); test: as above; assay type: cell-based
# How it was run: as §1
# [7] = tested on: methicillin-sensitive Staphylococcus epidermidis (MSSE); test: as above; assay type: cell-based
# How it was run: as §1
# [8] = tested on: methemoglobin in blood samples of three healthy volunteers; test: Toxicity on methemoglobin in vitro (whole blood with S9 and NADPH, absorbance at 630 nm); assay type: cell-based, human; conditions: 500 μM compound; whole blood + S9 + NADPH; 5 hours at 37° C.
# Protocol: Because PDF inhibitors such as LBM415 and GSK1322322 can produce active species such as aromatic hydroxylamine and aromatic hydrazines in metabolic process, and cause human methemoglobinemia. To this end, continuous wavelength method was adopted in this invention to scan the absorption spectrum of blood samples in the wavelength range of 500 to 700 nm in the ultraviolet-visible spectrophotometer, and the contents of methemoglobin in blood samples of three healthy volunteers were calculated, after being effected by the synthesized compounds.
# Experimental materials: Nicotinamide adenine dinucleotide phosphate (NADPH) reduction system: glucose-6-disodium phosphate, nicotinamide adenine dinucleoside phosphate and glucose-6-phosphate dehydrogenase (purchased from Shanghai yuanye Bio-Technology Co., Ltd) were added to 1 mL of phosphate buffer solution (PBS, pH 7.4), and the mixture was shaked in a shaker type water bath at 37° C. for 10 min, and then cooled to 0° C. Mixed human hepatocytes fraction S9 was purchased from Xenotech (20 mg S9 protein/1 mL suspension medium). Compounds were prepared to stock solution at a concentration of 50 mM, which was stored at −20° C. for use. Dapsone was used as positive control experimental reagent, which was purchased from Sigma Aldrich. 1% w/v triton X-100 was self-prepared. Blood samples were collected using Vacutainer tubes containing EDTA anticoagulants (BD, Franklin Lakes, USA), which were sampled from three healthy volunteers and used immediately after sampling.
# Preparation of incubation system for blood samples and drugs: 250 μL of incubation system was consist of 220 μL of whole blood, 25 μL of S9 (final concentration: 2 mg S9 protein/mL incubation solution), 2.5 μL of NADPH form system (final concentration: 10 mM G-6-P, 1 mM NADP, 7.5 Units/mL) and 2.5 μL of stock solution of a compound (final concentration 500 μM). […] of incubation system was placed in an Eppendorf tube and incubated for 5 hours at 37° C. in water bath.
# Determination of the content of methemoglobin: 60 μL of an incubated sample was taken and lysed with 3.0 mL of 1% Triton X-100. The content of methemoglobin (MetHb) was measured by an ultraviolet-visible spectrophotometer, with the Triton X-100 solution used as blank control. A sample was placed in a cuvette, 1 minute later, the spectrums of the sample in the wavelength range from 500 nm to 700 nm were recorded. The sample was added with 2 mg of potassium ferricyanide, and was allowed to stay stationary for 2 minutes for completely oxidization of ferrous iron in the sample, and standard spectrum of methemoglobin with saturated potassium ferricyanide. The percentage of methemoglobin formation (MetHb %) was obtained by the ratio of absorbance at 630 nm. MetHb %=(A′−AB′)/AM′, wherein, A′ was the total absorbance of the sample at 630 nm, AB′ was the base absorbance of the reduced blood in the sample at 630 nm, and AM′ was the absorbance of oxidized blood with saturated potassium ferricyanide at 630 nm.
# [9] = tested on: HCT-116 colorectal cancer cell line; test: CCK-8 proliferation inhibition; assay type: cell-based; conditions: Homo sapiens, HCT-116, 72 h, read-out: HCT116 inhibition rate/%
# How it was run: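 2000 cells/well, McCoy's 5A + 10% newborn bovine serum; overnight attach, 37° C./5% CO2. Cpd from DMSO stock diluted in medium, 72 h. Readout: CCK-8 (1:10). Ctrl 1‰ DMSO.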
smiles,measurement,setting,value
"CCCC[C@H](CN(O)C=O)C(=O)N1CC2(CC2)C[C@H]1c1nnc2ccccn12 [Example 13, N—((R)-2-((S)-6-([1,2,4]triazole[4,3-a]pyridin-3-yl)-5-azaspiro[2.4]heptane-5-carbonyl)hexyl)-N-hydroxyamide]",MIC,[1],0.5 to 2 µg/mL
same,MIC (anti-bacterial activity),[2]; strain EFA 14-1,4 µg/mL
same,MIC (anti-bacterial activity),[2]; strain EFA 14-2,8 µg/mL
same,MIC (anti-bacterial activity),[2]; strain EFA 14-3,8 µg/mL
same,MIC (anti-bacterial activity),[2]; strain EFA 14-5,8 µg/mL
same,MIC (anti-bacterial activity),[3]; strain ECO+ 14-1,2 µg/mL
same,MIC (anti-bacterial activity),[3]; strain ECO+ 14-2,128 µg/mL
same,MIC (anti-bacterial activity),[3]; strain ECO− 14-1,128 µg/mL
same,MIC (anti-bacterial activity),[3]; strain ECO− 14-2,128 µg/mL
same,MIC (anti-bacterial activity),[4]; strain MSSA 14-1,1 µg/mL
same,MIC (anti-bacterial activity),[4]; strain MSSA 14-2,1 µg/mL
same,MIC (anti-bacterial activity),[4]; strain MSSA 14-3,1 µg/mL
same,MIC (anti-bacterial activity),[4]; strain MSSA 14-4,1 µg/mL
same,MIC (anti-bacterial activity),[5]; strain MRSA 14-1,1 µg/mL
same,MIC (anti-bacterial activity),[5]; strain MRSA 14-2,1 µg/mL
same,MIC (anti-bacterial activity),[5]; strain MRSA 14-4,1 µg/mL
same,MIC (anti-bacterial activity),[5]; strain MRSA 14-5,1 µg/mL
same,MIC (anti-bacterial activity),"[5]; strain printed MRSA 14-1 (second line of that name, r23, before MRSE 14-2)",0.5 µg/mL
same,MIC (anti-bacterial activity),[6]; strain MRSE 14-2,0.5 µg/mL
same,MIC (anti-bacterial activity),[6]; strain MRSE 14-3,0.25 µg/mL
same,MIC (anti-bacterial activity),[6]; strain MRSE 14-4,1 µg/mL
same,MIC (anti-bacterial activity),[7]; strain MSSE 14-1,0.25 µg/mL
same,MIC (anti-bacterial activity),[7]; strain MSSE 14-2,0.5 µg/mL
same,MIC (anti-bacterial activity),[7]; strain MSSE 14-3,0.5 µg/mL
same,MIC (anti-bacterial activity),[7]; strain MSSE 14-4,0.5 µg/mL
same,MetHb % (n = 3),[8],1.15 ± 0.06%
same,inhibition at 30 µM,[9],13%
